Measured values taken from patent US20210301349A1, “COMPOSITIONS AND METHODS FOR TREATING A TUMOR SUPPRESSOR DEFICIENT CANCER” (BETH ISRAEL DEACONESS MEDICAL CENTER, INC., priority 2016, published 2021).
Entries after “also recorded” stand apart in the source; their conditions may differ.

Test system: Pten^pc−/−; Trp53^pc−/− prostate tumors
Test: Flow cytometry of immune infiltrate in treated Pten^pc−/−; Trp53^pc−/− prostate tumors
Type: in vivo, mouse
Settings: Trp53^pc−/− prostate tumors after treatment
Protocol: Mice were allocated at random to experimental groups and studies were performed in an unblended manner. For treatment with the CXCR2 antagonist, SB225002 (Cayman Chemical #13336) was dissolved in DMSO (10 mg/ml) and diluted in vehicle (0.9% NaCl, 0.3% Tween 80) for in vivo administration. Mice (4 months of age) were treated daily for 10 days by intraperitoneal injection (5 mg/kg) and prostate tumor tissue (anterior lobes) was subjected to Flow Cytometry and histological analysis. For MRI analysis, mice (4 months of age) were treated daily for 21 days (Pten^pc−/−; Zbtb7a^pc−/−), for 14 days (Pten^pc−/−; Trp53^pc−/−) or for 14 days (Pten^pc−/−; Pml^pc−/−) by intraperitoneal injection (5 mg/kg). For depletion of Gr-1+/CD11b+ cells, Ly6G-depletion antibody (1A8, BioXcell) and control Rat IgG2a antibody (BioXcell) were diluted in phosphate-buffered saline (PBS) for in vivo administration. Mice (4 months of age) were treated every other day for 10 days by intraperitoneal injection (200-300 μg/mouse). […] Tumor volume quantification was performed by using VivoQuant and Image J software. […]
For Flow Cytometry, spleen and lymph node single cell suspensions were prepared by mashing the tissue in 2% FBS/PBS. […] All staining mixtures were analyzed on a BD LSR II flow cytometer (Becton Dickinson). Resulting profiles were further processed and analyzed using the FlowJo 8.7 software.

SMILES: O=C(Nc1ccc([N+](=O)[O-])cc1O)Nc1ccccc1Br [SB225002]
- Treg cells (Foxp3+): less Foxp3+ cells; also recorded: less Treg cells
- intra-tumoral Gr-1+/CD11b+ cells: decrease of Gr-1+/CD11b+ cells
